Source: article PMC4448982, “LP-925219 maximizes urinary glucose excretion in mice by inhibiting both renal SGLT1 and SGLT2” (Pharmacology Research & Perspectives, 2015)

Columns and labels:
Assay type in all cases: cell-based
Settings in all cases: mean ± SD
[1] = target: T1, dog SGLT1 (Canis lupus familiaris, UniProt A0A8I3PYH5); assay: 14C-AMG uptake assay, cells expressing dog SGLT1
T1 sequence (A0A8I3PYH5 1-662): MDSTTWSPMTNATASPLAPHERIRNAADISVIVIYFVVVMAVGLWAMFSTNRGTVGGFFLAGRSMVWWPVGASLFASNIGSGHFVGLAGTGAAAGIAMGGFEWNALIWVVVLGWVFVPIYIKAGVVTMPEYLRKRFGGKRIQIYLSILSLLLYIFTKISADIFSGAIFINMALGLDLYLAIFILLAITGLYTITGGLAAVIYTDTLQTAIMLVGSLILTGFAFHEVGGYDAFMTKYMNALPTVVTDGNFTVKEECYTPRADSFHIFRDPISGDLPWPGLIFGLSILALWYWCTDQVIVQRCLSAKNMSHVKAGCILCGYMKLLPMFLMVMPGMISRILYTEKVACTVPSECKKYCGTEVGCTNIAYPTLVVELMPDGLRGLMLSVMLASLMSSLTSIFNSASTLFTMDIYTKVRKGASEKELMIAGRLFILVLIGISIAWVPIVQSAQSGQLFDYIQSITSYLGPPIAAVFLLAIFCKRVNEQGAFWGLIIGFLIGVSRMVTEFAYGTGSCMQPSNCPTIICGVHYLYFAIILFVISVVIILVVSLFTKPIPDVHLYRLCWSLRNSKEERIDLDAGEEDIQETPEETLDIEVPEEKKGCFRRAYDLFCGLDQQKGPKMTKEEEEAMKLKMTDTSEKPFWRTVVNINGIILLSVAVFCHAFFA
Source text: (§1) Methods for generating cell lines expressing mouse, rat, and dog SGLT1 and SGLT2 are published (Powell et al. [2013b], [2014]). Full-length coding sequence of human SGLT1 (NP_000334) and human SGLT2 (NP_003032.1) with an HA-tag at the N-terminus were cloned into the mammalian expression vector pIRESpuro2 (Clontech, Mountain View, CA). HEK293 cells (ATCC, Manassas, VA) were transfected with the pIRESpuro2 vector containing human SGLT1 or SGLT2 and bulk stable cell lines were selected in the presence of 0.5 μg/mL of puromycin.
(§2) Cell lines expressing SGLT1 or SGLT2 were plated into poly-D-lysine-coated 384-well plates, and culture overnight in cell growth medium. Cells were washed, and then incubated in uptake buffer ([…], […] KCl, […] CaCl2, […] MgCl2, […] HEPES/Tris, 1 mg/mL of bovine serum albumin, pH7.4) containing [^14C]α-methylglucopyranoside (^14C-AMG), a nonmetabolizable glucose analog specific for sodium-dependent glucose transporters (Wright and Turk [2004]). The inhibition of SGLT1 or SGLT2 was determined by measuring SGLT1/2-mediated ^14C-AMG uptake in the presence of increasing compound concentrations of LP-925219. […] Standard sigmoidal dose–response model curves were fitted, and the IC50 value was computed as the LP-925219 concentration that inhibited the ^14C-AMG uptake by 50% between baseline and maximum uptake.

[2] = target: T2, rat SGLT2 (Rattus norvegicus, UniProt P53792); assay: 14C-AMG uptake assay, cells expressing rat SGLT2
T2 construct: expressed in transfected cells; host or cells: HEK293 (per abstract)
T2 sequence (P53792 1-670): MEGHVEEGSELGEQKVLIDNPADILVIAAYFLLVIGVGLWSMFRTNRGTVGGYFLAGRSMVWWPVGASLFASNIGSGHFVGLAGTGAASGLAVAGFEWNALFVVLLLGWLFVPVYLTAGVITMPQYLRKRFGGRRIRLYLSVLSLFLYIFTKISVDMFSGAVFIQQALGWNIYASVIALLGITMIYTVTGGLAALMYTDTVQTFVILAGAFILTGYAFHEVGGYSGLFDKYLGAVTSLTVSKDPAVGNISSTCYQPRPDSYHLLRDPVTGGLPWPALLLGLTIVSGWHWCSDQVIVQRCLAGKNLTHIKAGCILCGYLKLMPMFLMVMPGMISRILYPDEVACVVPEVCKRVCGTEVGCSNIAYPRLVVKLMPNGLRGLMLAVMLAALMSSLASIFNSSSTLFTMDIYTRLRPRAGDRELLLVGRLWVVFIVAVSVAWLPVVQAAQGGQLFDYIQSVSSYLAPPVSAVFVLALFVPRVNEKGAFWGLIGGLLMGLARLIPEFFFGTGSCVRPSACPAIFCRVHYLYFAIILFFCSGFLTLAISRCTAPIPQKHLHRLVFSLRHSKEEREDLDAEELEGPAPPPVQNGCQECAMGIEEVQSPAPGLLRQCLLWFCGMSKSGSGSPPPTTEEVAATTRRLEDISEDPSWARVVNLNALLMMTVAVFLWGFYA
Source text: as §1, §2

[3] = target: T3, mouse SGLT1 (Mus musculus, UniProt Q8C3K6); assay: 14C-AMG uptake assay, HEK293 cells expressing mouse SGLT1
T3 construct: expressed in transfected cells; host or cells: HEK293 (per abstract)
T3 sequence (Q8C3K6 1-665): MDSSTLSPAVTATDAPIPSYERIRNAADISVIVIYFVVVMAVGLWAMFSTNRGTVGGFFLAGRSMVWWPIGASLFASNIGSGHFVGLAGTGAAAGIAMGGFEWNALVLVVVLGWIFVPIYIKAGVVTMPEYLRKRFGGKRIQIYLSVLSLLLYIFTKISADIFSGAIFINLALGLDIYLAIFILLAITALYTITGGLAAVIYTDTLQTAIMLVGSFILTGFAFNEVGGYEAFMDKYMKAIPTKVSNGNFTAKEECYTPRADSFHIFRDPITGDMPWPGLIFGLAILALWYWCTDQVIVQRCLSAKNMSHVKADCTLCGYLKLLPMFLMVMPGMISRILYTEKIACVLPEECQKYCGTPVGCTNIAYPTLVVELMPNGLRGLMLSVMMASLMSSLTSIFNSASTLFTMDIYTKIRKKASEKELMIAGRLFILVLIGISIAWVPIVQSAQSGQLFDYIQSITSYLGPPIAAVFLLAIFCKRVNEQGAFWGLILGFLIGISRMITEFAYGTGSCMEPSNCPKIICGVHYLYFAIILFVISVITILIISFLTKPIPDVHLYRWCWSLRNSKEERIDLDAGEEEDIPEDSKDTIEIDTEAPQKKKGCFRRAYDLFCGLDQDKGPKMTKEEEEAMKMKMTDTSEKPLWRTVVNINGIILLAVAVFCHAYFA
Source text: as §1, §2

## COc1ccc(Cc2cc([C@@H]3O[C@H](SC)[C@@H](O)[C@H](O)[C@H]3O)ccc2Cl)cc1 [LP-925219]
[1]
  IC50: 0.0302 ± 0.002 µM
[2]
  IC50: 0.0003 ± 0.0002 µM
[3]
  IC50: 0.0226 ± 0.001 µM
